In patent US20080026003A1, “Methods for inhibiting pain” (The General Hospital Corporation, priority 2000, published 2008):
Entries after “also recorded” stand apart in the source; their conditions may differ.

How the values were obtained:
[1] = tested on: CFA inflamed hindpaw of rats; test: Mechanical (von Frey) and thermal (radiant heat) sensitivity after Cox-2 or caspase-1 inhibitor
Description: Thermal sensitivity was assessed by applying a beam of radiant heat and recording the paw withdrawal latency (Decosterd et al., supra).

[2] = tested on: CFA-induced inflammatory pain in rats; details: non-inflamed animals; Ji et al., 1999; cited from earlier work
VR1 protein = VR1 protein in DRG after CFA inflammation (Western blot, immunohistochemistry); assay type: in vivo, rat; details: for induction of VR1 after inflammation: continuous intrathecal infusion via osmotic pump, two days
Description: L4 and L5 DRGs and L4-L5 spinal cord segments were dissected. DRG and transverse spinal cord sections (20 μm) were cut and processed for immunohistochemistry using the previously described ABC method (Ji et al., Nat. Neurosci. 2:1114-1119, 1999), with polyclonal anti-p38 and phospho-p38 (1:300, New England BioLabs) and polyclonal anti-VR1 antibodies (1:5000, Kindly provided by Glaxso Welcome and Dr. David Julius). For colocalization studies, immunofluorescence was performed to analyze the double staining between antibodies reactive with phosphop38 (anti-rabbit, 1:300) and VR1 (anti-guinea pig, 1:3000, Neuromics) or P2X3 (anti-guinea pig, 1:3000, Neuromics) or NeuN (anti-mouse, 1:3000, Chemicon). This double immunofluorescence was performed as previously described (Ji et al., 2001, supra). Briefly, DRG and spinal sections were incubated with a mixture of two primary antibodies overnight at 4° C. and then incubated with a mixture of FITC- and CY3-congugated secondary antibodies (1:300, Jackson immunolab) for two hours at room temperature. A Tyramide Signal Amplification (TSA, NEN) kit was used to perform double staining with two polyclonal rabbit antibodies (phospho p38 and TrkA) as previously reported (Amaya et al., Mol. Cell Neurosci 15:331-342, 2000). The images of immunostained DRG sections were captured with a CCD camera. The intensity of immunostaining was measured with computer-assisted software (IP lab), and the number of immunoreactive neuronal profiles was counted in a blinded fashion. […] Instead, the results provide a way to evaluate differences in staining levels between control and treated animals. To prevent variations due to experimental conditions, the control and treated DRG sections were mounted on the same slides and processed under the same conditions. […]
To determine whether expression of VR1 protein in DRG neurons was induced by peripheral inflammation, the following Western blot analysis was used. […] The density of specific bands was measured and normalized with internal control bands from the loading control. […]

[3] = tested on: CFA-induced inflammatory pain in rats; test: Heat and mechanical sensitivity after intrathecal p38 inhibitor; assay type: in vivo, rat; details: intrathecal 1 μg 24 hours after CFA treatment; tested 0.5, 3 and 24 hours
CFA-injected paws = test: CFA-induced paw swelling (paw thickness); assay type: in vivo, rat; details: intrathecal infusion by osmotic pump started before CFA
Description: (§1) CFA-induced inflammatory pain is characterized by hyperalgesia (i.e., an increased sensitivity to a noxious stimulus) and allodynia (i.e., generation of pain by a normally innocuous stimulus). To examine the involvement of p38 activation in the DRG in inflammatory pain, 10 μl of a specific p38 inhibitor, SB 203580 (1 μg, Calbiochem), was administered into the intrathecal space (close to L4 DRG level) via an intrathecal PP10 catheter. Although p38 inhibitors have an anti-inflammatory action when delivered systematically, localized intrathecal drug administration should not affect inflammation in the paw. To obtain a sustained and stable drug infusion, an Alzet osmotic pump (seven day pump, 0.5 μl/hour) was filled with the p38-inhibitor SB 203580 (1 μg/μl) in saline, and the associated catheter of the pump was implanted intrathecally sixteen hours before CFA injection. Saline was used as vehicle control for the osmotic pump.

[4] = tested on: CFA-induced inflammatory pain in rats; test: Heat and mechanical sensitivity after intrathecal p38 inhibitor; assay type: in vivo, rat; details: for late phase of inflammation-induced heat hyperalgesia: 24 and 48 hours after CFA
Description: as §1
To test whether the p38 inhibitor affects basal pain sensitivity, heat and mechanical sensitivity were measured, as previously described (Ji et al., 2001, supra). Briefly, animals were habituated and basal pain sensitivity was tested before drug administration or surgery. Mechanical withdrawal threshold on the plantar surface of the hindpaw was measured with a set of von Frey hairs. […] Thermal paw withdrawal latency was measured using the Hargreaves radiant heat apparatus and averaged over three trials. […] To investigate whether the p38 inhibitor affects established inflammatory pain, SB203580 (1 μg) was intrathecally injected 48 hours after CFA injection. Pain behavior was measured 0.5, 3, and 24 hours after the inhibitor was injected.

p-p38 and VR1 = p-p38 and VR1 in DRG after intrathecal NGF; assay type: in vivo, rat; details: for NGF-induced VR1 increase: 1 μg co-administered with NGF twice a day for three days
Description: L4 and L5 DRGs and L4-L5 spinal cord segments were dissected. DRG and transverse spinal cord sections (20 μm) were cut and processed for immunohistochemistry using the previously described ABC method (Ji et al., Nat. Neurosci. 2:1114-1119, 1999), with polyclonal anti-p38 and phospho-p38 (1:300, New England BioLabs) and polyclonal anti-VR1 antibodies (1:5000, Kindly provided by Glaxso Welcome and Dr. David Julius). For colocalization studies, immunofluorescence was performed to analyze the double staining between antibodies reactive with phosphop38 (anti-rabbit, 1:300) and VR1 (anti-guinea pig, 1:3000, Neuromics) or P2X3 (anti-guinea pig, 1:3000, Neuromics) or NeuN (anti-mouse, 1:3000, Chemicon). This double immunofluorescence was performed as previously described (Ji et al., 2001, supra). Briefly, DRG and spinal sections were incubated with a mixture of two primary antibodies overnight at 4° C. and then incubated with a mixture of FITC- and CY3-congugated secondary antibodies (1:300, Jackson immunolab) for two hours at room temperature. A Tyramide Signal Amplification (TSA, NEN) kit was used to perform double staining with two polyclonal rabbit antibodies (phospho p38 and TrkA) as previously reported (Amaya et al., Mol. Cell Neurosci 15:331-342, 2000). The images of immunostained DRG sections were captured with a CCD camera. The intensity of immunostaining was measured with computer-assisted software (IP lab), and the number of immunoreactive neuronal profiles was counted in a blinded fashion. […] Instead, the results provide a way to evaluate differences in staining levels between control and treated animals. To prevent variations due to experimental conditions, the control and treated DRG sections were mounted on the same slides and processed under the same conditions. […] As previously reported (Ji et al., 1999, supra), every fifth section was picked from a series of consecutive DRG sections (20 μm), and four sections were included for each DRG. The percentage of immnunoreactive neuronal profiles=(number of positive stained neuronal profiles/number of total neuronal profiles)×100.
After CFA-induced inflammation, NGF is produced in the inflamed paw tissue and is retrogradely transported to the cell body of DRG neurons. NGF is critical for gene expression in DRG neurons and plays a major role in inflammatory pain (Lindsay et al., Nature 337: 362-364, 1989; and Woolf et al., Neuroscience 62:327-331, 1994). […] To determine whether NGF is required for the inflammation-induced activation of p38 and upregulation of VR1, NGF antiserum (i.p., 5 μl/g body weight, 84 mg/ml) was injected to neutralize endogenous NGF. […] Intrathecal injection of NGF (2 μg in 10 μl, twice a day for three days, Boeringer) increased both p-p38 levels and VR1 levels in DRG neurons. […]

Cox-2 mRNA [5] = test: Cox-2 mRNA in lumbar spinal cord after intraplantar CFA (RNase protection assay); assay type: in vivo, rat
Description: The extent of Cox-2 induction in the central nervous system following unilateral hindpaw inflammation evoked by complete Freund's adjuvant (CFA) was investigated. CFA (100 μl, Sigma) was injected into the left rat hindpaw of rats anaesthetized with 2% halothane. The level of Cox-2 mRNA was measured using RNase protection assays which were performed on total RNA extracts from spinal cord samples using the RPA III kit (Ambion). […] At least two assays were used for each observation, and the fold change in Cox-2 mRNA levels was determined with respect to a β-actin loading control.
To further support the role of central IL-1β in induction of Cox-2, the effect of inhibiting IL-1β activity was determined.

Cox-2 mRNA [6] = test: Cox-2 mRNA in isolated spinal cord slice in vitro; assay type: cell-based, rat; details: 200 ng/ml; in vitro spinal cord slice
Description: Two mechanisms may contribute to central Cox-2 induction in response to peripheral inflammation: 1) sensory inflow from nerve fibers innervating the inflamed hindpaw or 2) circulating pro-inflammatory cytokines. To determine whether primary sensory neuron activity increases central Cox-2, an isolated adult rat spinal cord slice preparation with an attached dorsal root was analyzed (FIG. 5A). To prepare this spinal cord slice, the lumbar spinal cord from an adult rat under urethane anesthesia was removed and immersed in cold Kreb's solution. A 700-μm-thick transverse slice with attached L4 dorsal root (15-20 mm) was prepared and perfused with Kreb's solution saturated with 95% O2 and 5% CO2 at 36-37° C. (Baba et al., J Neurosci 19:859, 1999). The L4 dorsal root was electrically stimulated for 30 minutes using a suction electrode at 20 μA (0.05 ms, 50 Hz) for Aβ-fibers, 100 μA (0.05 ms, 50 Hz) for […] 1000 μA (0.5 ms, 50 Hz) for C-fibers. The slices were perfused with Kreb's solution for two hours before electrical stimulation, and for three hours after stimulation.

p38 and ERK = test: MAP kinase phosphorylation in primary DRG neuron cultures; assay type: cell-based, rat; details: culture
Description: To investigate the intracellular signaling pathway that leads to the increase in Cox-2 mRNA in the DRG neurons following treatment with IL-1β, the activation of the NFκ-B transcription factor and members of the MAP kinase family in primary DRG neurons was studied. […] Phosphorylated p38 and ERK were visualized by standard Western blot analysis and immunohistochemistry 30 minutes after administration of 10 ng/ml IL-1β to the culture medium (FIG. 12).
After CFA-induced inflammation, NGF is produced in the inflamed paw tissue and is retrogradely transported to the cell body of DRG neurons. NGF is critical for gene expression in DRG neurons and plays a major role in inflammatory pain (Lindsay et al., Nature 337: 362-364, 1989; and Woolf et al., Neuroscience 62:327-331, 1994). […] To determine whether NGF is required for the inflammation-induced activation of p38 and upregulation of VR1, NGF antiserum (i.p., 5 μl/g body weight, 84 mg/ml) was injected to neutralize endogenous NGF. […] Intrathecal injection of NGF (2 μg in 10 μl, twice a day for three days, Boeringer) increased both p-p38 levels and VR1 levels in DRG neurons. […] To test whether NGF acts via p38 to upregulate VR1, the p38 inhibitor SB203580 (1 μg) was co-administrated with NGF (twice a day for three days).

PGE2 = PGE2 levels in cerebrospinal fluid after CFA inflammation (enzyme-immunoassay); assay type: in vivo, rat; details: for decrease of PGE2 levels in the cerebrospinal fluid: intrathecal
[7] = intrathecal 30 μg, 48 hours after CFA-induced inflammation
[8] = intrathecal infusion before CFA
[9] = intrathecal infusion before CFA, listed as SB 203580
[10] = intrathecal 2 μg twice a day for three days

For CS(=O)(=O)Nc1ccc([N+](=O)[O-])cc1OC1CCCCC1 [NS398], which “reduction of mechanical hyperalgesia” value [1, 7] is on record?
Its value is 4.2 fold.

And the thermal hyperalgesia [1, 7]?
Its thermal hyperalgesia is “significantly reduced”.

What about the “mechanical or thermal pain sensitivity in naive rats” value ([1]; naive rats) of the same compound?
The value was “did not alter”.

With COc1cccc(-c2cc(=O)c3ccccc3o2)c1N [PD98059] as the compound, how does the basal pain sensitivity [2] read?
The basal pain sensitivity was “no significant change”.

With C[S+]([O-])c1ccc(-c2nc(-c3ccncc3)c(-c3ccc(F)cc3)[nH]2)cc1 (stereo not shown) [SB203580] as the compound, how does the “induction of VR1 after inflammation” value (VR1 protein) read?
The value was “inhibited; also recorded: blocked”.

And the “induction of VR1 after inflammation” value (VR1 protein; listed as SB 203580)?
The value was “decreased”.

What about the “CFA-induced upregulation of VR1 protein (Western blot)” value (VR1 protein; intrathecal 1 μg twice a day for two days, at two days) of the same compound?
The value was “blocked”.

And the inflammatory heat hyperalgesia [3]?
The inflammatory heat hyperalgesia was “delayed inhibition”.

What about the “CFA-induced swelling, based on paw thickness” value (CFA-injected paws) of the same compound?
Its value is “does not change”.

What about the “CFA-induced swelling, based on paw thickness” value (CFA-injected paws; listed as SB 203085) of the same compound?
The value was “did not reduce”.

And the established inflammatory pain ([4]; 1 μg intrathecal after CFA, 0.5 hours post-injection)?
The established inflammatory pain was “did not affect”.

And the heat hyperalgesia ([4]; 1 μg intrathecal after CFA, 24 hours post-injection)?
Its heat hyperalgesia is “completely reversed”.

And the heat hyperalgesia ([4]; 1 μg intrathecal after CFA, three hours post-injection)?
The heat hyperalgesia was “started to decrease”.

And the inflammatory heat hyperalgesia ([4]; intrathecal bolus 1 μg twice a day for two days, first 30 minutes prior to CFA)?
The inflammatory heat hyperalgesia was “decreased”.

What about the mechanical allodynia [4, 8] of the same compound?
The mechanical allodynia was “did not significantly affect”.

What about the “late phase of inflammation-induced heat hyperalgesia” value [4, 8] of the same compound?
The value was “alleviated”.

And the “late phase of inflammation-induced heat hyperalgesia” value [4, 9]?
The value was “reduced”.

And the mechanical allodynia [4, 9]?
The mechanical allodynia was “did not affect”.

And the “heat and mechanical sensitivity in non-inflamed rats” value ([4]; non-inflamed rats, intrathecal)?
The value was “Neither heat nor mechanical sensitivity in non-inflamed rats was affected”.

What about the “early phase of inflammatory pain” value ([4]; six hour time point, intrathecal infusion before CFA) of the same compound?
Its value is “did not change”.

And the “NGF-induced VR1 increase” value (p-p38 and VR1)?
The value was “significantly suppressed”.

What about the “NGF-induced VR1 increase” value (p-p38 and VR1; listed as 203580) of the same compound?
Its value is “blocked”.

Which “reduction of Cox-2 mRNA levels” value (Cox-2 mRNA [5]; intrathecal 6 μg 30 minutes prior to CFA injection, six hours post-inflammation) does the source give for “IL-1ra: recombinant IL-1β receptor antagonist (IL-1ra)” here?
The value was 75%.

And the “activity-evoked Cox-2 mRNA induction” value (Cox-2 mRNA [6])?
The value was “did not affect”.

What does the source list for “NGF: nerve growth factor, a known pain mediator, injected intrathecally”?
p38 activation in adult primary DRG neurons grown in culture (p38 and ERK): induced; VR1 levels in DRG neurons (p-p38 and VR1; [10]): increases; p-p38 levels in DRG neurons (p-p38 and VR1; [10]): increases

Which results are given for acetyl-Tyr-Val-Ala-Asp-CHO [YVAD]?
block of the induction of spinal Cox-2 mRNA (Cox-2 mRNA [5]; 30 minute intrathecal pretreatment, 1 nmole (0.5 μg), six hours after peripheral inflammation): 65%; normalizing mechanical sensitivity ([1]; intrathecal 1 nmol, CFA inflammation): 12 fold; thermal withdrawal latency of the CFA inflamed hindpaw ([1]; intrathecal 1 nmol, compared with vehicle): did not significantly affect; mechanical threshold of the CFA inflamed hindpaw ([1]; intrathecal 1 nmol, compared with vehicle, p<0.05): increased; reduction of the levels of central PGE2 (PGE2; intrathecal pretreatment 1 nmole, 12 and 24 hours post-inflammation): 50%; decrease of PGE2 levels in the cerebrospinal fluid (PGE2; 12 hours post inflammation): 50%; decrease of PGE2 levels in the cerebrospinal fluid (PGE2; 24 hours post-inflammation): 70%
